{
  "source": "paper PMC8333425",
  "about": "“Discovery of a dual Ras and ARF6 inhibitor from a GPCR endocytosis screen” (Nature Communications, 2021)",
  "assay_in_all_cases": "KINOMEscan kinase binding assay",
  "key": {"[1]": {"biological_target": "T1, 384 kinases from the human genome (Homo sapiens, UniProt O95382)", "T1 construct": "purchased Eurofin/DiscoverX", "T1 sequence (O95382 whole entry)": "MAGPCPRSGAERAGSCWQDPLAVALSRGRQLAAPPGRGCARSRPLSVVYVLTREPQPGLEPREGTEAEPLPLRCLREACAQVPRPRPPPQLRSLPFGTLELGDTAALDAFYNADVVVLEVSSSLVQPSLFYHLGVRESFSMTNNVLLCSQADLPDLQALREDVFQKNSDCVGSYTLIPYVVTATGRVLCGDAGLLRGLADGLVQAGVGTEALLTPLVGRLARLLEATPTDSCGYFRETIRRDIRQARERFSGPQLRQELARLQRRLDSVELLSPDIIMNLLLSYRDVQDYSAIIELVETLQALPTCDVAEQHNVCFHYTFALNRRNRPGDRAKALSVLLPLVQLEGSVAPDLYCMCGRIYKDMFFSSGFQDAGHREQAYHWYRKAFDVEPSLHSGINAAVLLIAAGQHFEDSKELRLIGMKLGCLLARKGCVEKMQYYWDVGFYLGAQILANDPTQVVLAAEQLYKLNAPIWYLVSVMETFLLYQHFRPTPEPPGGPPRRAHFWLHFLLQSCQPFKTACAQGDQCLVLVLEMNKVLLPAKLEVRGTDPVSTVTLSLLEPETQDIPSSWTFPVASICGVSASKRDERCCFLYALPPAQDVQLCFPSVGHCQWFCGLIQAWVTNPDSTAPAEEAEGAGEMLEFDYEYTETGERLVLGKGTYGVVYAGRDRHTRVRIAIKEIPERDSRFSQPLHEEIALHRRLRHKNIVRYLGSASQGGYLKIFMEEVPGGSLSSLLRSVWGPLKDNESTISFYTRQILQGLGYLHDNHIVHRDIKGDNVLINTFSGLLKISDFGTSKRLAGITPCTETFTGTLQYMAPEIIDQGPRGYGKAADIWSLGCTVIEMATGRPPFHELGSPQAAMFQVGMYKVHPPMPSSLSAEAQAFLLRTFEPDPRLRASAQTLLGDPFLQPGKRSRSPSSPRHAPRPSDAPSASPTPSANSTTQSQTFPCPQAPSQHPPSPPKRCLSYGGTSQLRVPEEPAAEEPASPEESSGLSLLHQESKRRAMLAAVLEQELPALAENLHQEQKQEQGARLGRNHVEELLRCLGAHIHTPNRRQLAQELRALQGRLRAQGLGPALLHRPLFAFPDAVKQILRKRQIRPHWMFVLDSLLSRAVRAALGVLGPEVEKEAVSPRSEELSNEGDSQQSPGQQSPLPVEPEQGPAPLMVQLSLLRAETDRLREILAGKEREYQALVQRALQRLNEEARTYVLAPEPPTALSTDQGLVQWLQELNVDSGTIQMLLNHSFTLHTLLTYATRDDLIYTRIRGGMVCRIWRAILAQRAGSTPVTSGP", "conditions": "kinase ASK2 (Entrez MAP3K6)", "summary_of_the_method": "(§1)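 Competition binding (KINOMEscan) across 384 human kinases with compound at 10 µM. Ligand binding was expressed relative to DMSO (100%) as the average of duplicates from one experiment. S(10) selectivity score was derived.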"}, "[2]": {"biological_target": "T2, 384 kinases from the human genome (Homo sapiens, UniProt P20794)", "T2 construct": "purchased Eurofin/DiscoverX", "conditions": "kinase MAK (Entrez MAK)", "summary_of_the_method": "as §1"}, "[3]": {"biological_target": "T3, 384 kinases from the human genome (Homo sapiens, UniProt P07949)", "T3 construct": "purchased Eurofin/DiscoverX", "conditions": "kinase RET (Entrez RET)", "summary_of_the_method": "as §1"}, "[4]": {"biological_target": "T4, 384 kinases from the human genome (Homo sapiens, UniProt Q99759)", "T4 construct": "purchased Eurofin/DiscoverX", "conditions": "kinase MAP3K3 (Entrez MAP3K3)", "summary_of_the_method": "as §1"}, "[5]": {"biological_target": "T5, 384 kinases from the human genome (Homo sapiens, UniProt P42336)", "T5 construct": "purchased Eurofin/DiscoverX", "conditions": "kinase PIK3CA (Entrez PIK3CA)", "summary_of_the_method": "as §1"}, "[6]": {"biological_target": "T6, 384 kinases from the human genome (Homo sapiens, UniProt Q6ZWH5)", "T6 construct": "purchased Eurofin/DiscoverX", "conditions": "kinase NEK10 (Entrez NEK10)", "summary_of_the_method": "as §1"}, "[7]": {"biological_target": "T7, 384 kinases from the human genome (Homo sapiens, UniProt P19525)", "T7 construct": "purchased Eurofin/DiscoverX", "conditions": "kinase PRKR (Entrez EIF2AK2)", "summary_of_the_method": "as §1"}, "[8]": {"biological_target": "T8, 384 kinases from the human genome (Homo sapiens, UniProt P41240)", "T8 construct": "purchased Eurofin/DiscoverX", "conditions": "kinase CSK (Entrez CSK)", "summary_of_the_method": "as §1"}, "[9]": {"biological_target": "T9, 384 kinases from the human genome (Homo sapiens, UniProt Q13546)", "T9 construct": "purchased Eurofin/DiscoverX", "conditions": "kinase RIPK1 (Entrez RIPK1)", "summary_of_the_method": "as §1"}, "[10]": {"biological_target": "T10, 384 kinases from the human genome (Homo sapiens, UniProt P27448)", "T10 construct": "purchased Eurofin/DiscoverX", "conditions": "kinase MARK3 (Entrez MARK3)", "summary_of_the_method": "as §1"}, "[11]": {"biological_target": "T11, 384 kinases from the human genome (Homo sapiens, UniProt Q13705)", "T11 construct": "purchased Eurofin/DiscoverX", "conditions": "kinase ACVR2B (Entrez ACVR2B)", "summary_of_the_method": "as §1"}, "[12]": {"biological_target": "T12, 384 kinases from the human genome (Homo sapiens, UniProt O43353)", "T12 construct": "purchased Eurofin/DiscoverX", "conditions": "kinase RIPK2 (Entrez RIPK2)", "summary_of_the_method": "as §1"}, "[13]": {"biological_target": "T13, 384 kinases from the human genome (Homo sapiens, UniProt P42684)", "T13 construct": "purchased Eurofin/DiscoverX", "conditions": "kinase ABL2 (Entrez ABL2)", "summary_of_the_method": "as §1"}, "[14]": {"biological_target": "T14, 384 kinases from the human genome (Homo sapiens, UniProt Q8N5S9)", "T14 construct": "purchased Eurofin/DiscoverX", "T14 sequence (Q8N5S9 whole entry)": "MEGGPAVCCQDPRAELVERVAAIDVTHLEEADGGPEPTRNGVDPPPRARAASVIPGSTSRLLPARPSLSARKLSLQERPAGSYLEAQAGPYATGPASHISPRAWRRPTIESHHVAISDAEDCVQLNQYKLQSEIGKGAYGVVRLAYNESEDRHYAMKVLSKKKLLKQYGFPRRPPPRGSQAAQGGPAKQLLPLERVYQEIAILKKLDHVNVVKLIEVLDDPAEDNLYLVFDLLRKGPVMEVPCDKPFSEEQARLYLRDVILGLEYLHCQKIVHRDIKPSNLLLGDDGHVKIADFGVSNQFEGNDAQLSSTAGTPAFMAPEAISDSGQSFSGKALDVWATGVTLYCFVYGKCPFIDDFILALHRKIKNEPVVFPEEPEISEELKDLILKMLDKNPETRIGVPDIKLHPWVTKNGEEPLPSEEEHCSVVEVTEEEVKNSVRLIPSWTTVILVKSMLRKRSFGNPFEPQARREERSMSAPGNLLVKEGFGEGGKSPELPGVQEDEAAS", "conditions": "kinase CAMKK1 (Entrez CAMKK1)", "summary_of_the_method": "as §1"}, "[15]": {"biological_target": "T15, 384 kinases from the human genome (Homo sapiens, UniProt P51813)", "T15 construct": "purchased Eurofin/DiscoverX", "conditions": "kinase BMX (Entrez BMX)", "summary_of_the_method": "as §1"}, "[16]": {"biological_target": "T16, 384 kinases from the human genome (Homo sapiens, UniProt P51451)", "T16 construct": "purchased Eurofin/DiscoverX", "T16 sequence (P51451 whole entry)": "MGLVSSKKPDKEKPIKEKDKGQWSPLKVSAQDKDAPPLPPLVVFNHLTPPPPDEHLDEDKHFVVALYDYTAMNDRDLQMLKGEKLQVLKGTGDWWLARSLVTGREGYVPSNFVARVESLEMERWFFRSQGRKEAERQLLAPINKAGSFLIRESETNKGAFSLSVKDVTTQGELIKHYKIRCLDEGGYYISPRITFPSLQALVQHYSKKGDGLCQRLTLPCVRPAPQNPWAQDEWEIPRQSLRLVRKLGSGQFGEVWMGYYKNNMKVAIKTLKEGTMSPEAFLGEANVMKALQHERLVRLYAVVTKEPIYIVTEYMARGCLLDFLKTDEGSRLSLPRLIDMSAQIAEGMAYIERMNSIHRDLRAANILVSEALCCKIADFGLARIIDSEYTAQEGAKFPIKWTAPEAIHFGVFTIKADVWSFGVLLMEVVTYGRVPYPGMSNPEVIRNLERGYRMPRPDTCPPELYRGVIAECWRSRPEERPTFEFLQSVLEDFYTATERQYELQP", "conditions": "kinase BLK (Entrez BLK)", "summary_of_the_method": "as §1"}, "[17]": {"biological_target": "T17, 384 kinases from the human genome (Homo sapiens, UniProt Q14004)", "T17 construct": "purchased Eurofin/DiscoverX", "conditions": "kinase CDC2L5 (Entrez CDK13)", "summary_of_the_method": "as §1"}, "[18]": {"biological_target": "T18, 384 kinases from the human genome (Homo sapiens, UniProt P07947)", "T18 construct": "purchased Eurofin/DiscoverX", "conditions": "kinase YES (Entrez YES1)", "summary_of_the_method": "as §1"}, "[19]": {"biological_target": "T19, 384 kinases from the human genome (Homo sapiens, UniProt Q6P2M8)", "T19 construct": "purchased Eurofin/DiscoverX", "T19 sequence (Q6P2M8 whole entry)": "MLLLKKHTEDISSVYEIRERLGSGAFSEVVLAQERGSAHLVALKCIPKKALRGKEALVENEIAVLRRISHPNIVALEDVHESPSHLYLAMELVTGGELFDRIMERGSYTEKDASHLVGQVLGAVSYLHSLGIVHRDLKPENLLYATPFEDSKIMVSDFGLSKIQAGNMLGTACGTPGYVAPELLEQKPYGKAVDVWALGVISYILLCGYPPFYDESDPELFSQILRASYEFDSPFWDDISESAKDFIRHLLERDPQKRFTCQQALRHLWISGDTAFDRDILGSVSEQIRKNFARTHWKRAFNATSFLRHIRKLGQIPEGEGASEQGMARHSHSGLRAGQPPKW", "conditions": "kinase CAMK1B (Entrez PNCK)", "summary_of_the_method": "as §1"}, "[20]": {"biological_target": "T20, 384 kinases from the human genome (Homo sapiens, UniProt P08631)", "T20 construct": "purchased Eurofin/DiscoverX", "conditions": "kinase HCK (Entrez HCK)", "summary_of_the_method": "as §1"}, "[21]": {"biological_target": "T21, 384 kinases from the human genome (Homo sapiens, UniProt P30291)", "T21 construct": "purchased Eurofin/DiscoverX", "T21 sequence (P30291 whole entry)": "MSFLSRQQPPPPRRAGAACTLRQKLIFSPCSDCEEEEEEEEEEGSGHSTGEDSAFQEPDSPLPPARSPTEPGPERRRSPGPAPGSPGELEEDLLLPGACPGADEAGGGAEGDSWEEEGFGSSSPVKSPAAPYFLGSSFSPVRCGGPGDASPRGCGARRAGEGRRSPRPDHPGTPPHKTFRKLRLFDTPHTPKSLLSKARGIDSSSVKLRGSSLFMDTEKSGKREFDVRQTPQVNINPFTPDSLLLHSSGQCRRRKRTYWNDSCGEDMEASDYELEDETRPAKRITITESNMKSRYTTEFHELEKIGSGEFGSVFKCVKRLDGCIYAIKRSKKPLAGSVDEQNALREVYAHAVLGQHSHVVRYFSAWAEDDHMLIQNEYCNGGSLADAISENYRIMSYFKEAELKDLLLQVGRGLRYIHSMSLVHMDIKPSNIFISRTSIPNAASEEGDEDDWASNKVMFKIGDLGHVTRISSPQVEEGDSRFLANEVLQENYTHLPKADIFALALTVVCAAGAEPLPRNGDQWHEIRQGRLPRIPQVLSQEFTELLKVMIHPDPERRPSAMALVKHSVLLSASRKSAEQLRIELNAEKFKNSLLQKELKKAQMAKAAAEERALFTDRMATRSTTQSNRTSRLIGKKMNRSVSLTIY", "conditions": "kinase WEE1 (Entrez WEE1)", "summary_of_the_method": "as §1"}, "[22]": {"biological_target": "T22, 384 kinases from the human genome (Homo sapiens, UniProt P08922)", "T22 construct": "purchased Eurofin/DiscoverX", "conditions": "kinase ROS1 (Entrez ROS1)", "summary_of_the_method": "as §1"}, "[23]": {"biological_target": "T23, 384 kinases from the human genome (Homo sapiens, UniProt Q00537)", "T23 construct": "purchased Eurofin/DiscoverX", "conditions": "kinase PCTK2 (Entrez CDK17)", "summary_of_the_method": "as §1"}, "[24]": {"biological_target": "T24, 384 kinases from the human genome (Homo sapiens, UniProt Q13976)", "T24 construct": "purchased Eurofin/DiscoverX", "conditions": "kinase PRKG1 (Entrez PRKG1)", "summary_of_the_method": "as §1"}, "[25]": {"biological_target": "T25, 384 kinases from the human genome (Homo sapiens, UniProt Q9UKI8)", "T25 construct": "purchased Eurofin/DiscoverX", "T25 sequence (Q9UKI8 whole entry)": "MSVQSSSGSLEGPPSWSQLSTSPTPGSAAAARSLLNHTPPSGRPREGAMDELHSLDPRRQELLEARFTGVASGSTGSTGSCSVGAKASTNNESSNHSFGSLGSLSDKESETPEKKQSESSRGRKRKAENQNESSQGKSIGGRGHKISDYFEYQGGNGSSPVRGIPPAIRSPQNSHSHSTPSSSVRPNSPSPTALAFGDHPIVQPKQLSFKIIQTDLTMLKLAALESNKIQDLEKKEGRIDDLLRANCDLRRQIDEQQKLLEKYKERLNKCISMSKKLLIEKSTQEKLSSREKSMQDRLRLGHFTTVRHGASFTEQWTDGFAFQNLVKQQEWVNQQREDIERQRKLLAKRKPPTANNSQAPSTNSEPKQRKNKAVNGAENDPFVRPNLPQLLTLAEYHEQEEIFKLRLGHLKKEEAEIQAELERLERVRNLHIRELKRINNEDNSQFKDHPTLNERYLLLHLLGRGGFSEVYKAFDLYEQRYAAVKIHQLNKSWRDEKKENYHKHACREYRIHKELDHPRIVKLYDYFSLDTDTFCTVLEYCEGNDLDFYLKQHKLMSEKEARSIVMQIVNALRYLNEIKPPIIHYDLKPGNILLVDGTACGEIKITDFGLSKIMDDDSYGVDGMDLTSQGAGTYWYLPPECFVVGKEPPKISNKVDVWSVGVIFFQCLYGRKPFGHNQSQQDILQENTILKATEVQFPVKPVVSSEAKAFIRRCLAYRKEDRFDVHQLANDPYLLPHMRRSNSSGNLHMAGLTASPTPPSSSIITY", "conditions": "kinase TLK1 (Entrez TLK1)", "summary_of_the_method": "as §1"}, "[26]": {"biological_target": "T26, 384 kinases from the human genome (Homo sapiens, UniProt P29317)", "T26 construct": "purchased Eurofin/DiscoverX", "conditions": "kinase EPHA2 (Entrez EPHA2)", "summary_of_the_method": "as §1"}, "[27]": {"biological_target": "T27, 384 kinases from the human genome (Homo sapiens, UniProt Q9H0K1)", "T27 construct": "purchased Eurofin/DiscoverX", "T27 sequence (Q9H0K1 whole entry)": "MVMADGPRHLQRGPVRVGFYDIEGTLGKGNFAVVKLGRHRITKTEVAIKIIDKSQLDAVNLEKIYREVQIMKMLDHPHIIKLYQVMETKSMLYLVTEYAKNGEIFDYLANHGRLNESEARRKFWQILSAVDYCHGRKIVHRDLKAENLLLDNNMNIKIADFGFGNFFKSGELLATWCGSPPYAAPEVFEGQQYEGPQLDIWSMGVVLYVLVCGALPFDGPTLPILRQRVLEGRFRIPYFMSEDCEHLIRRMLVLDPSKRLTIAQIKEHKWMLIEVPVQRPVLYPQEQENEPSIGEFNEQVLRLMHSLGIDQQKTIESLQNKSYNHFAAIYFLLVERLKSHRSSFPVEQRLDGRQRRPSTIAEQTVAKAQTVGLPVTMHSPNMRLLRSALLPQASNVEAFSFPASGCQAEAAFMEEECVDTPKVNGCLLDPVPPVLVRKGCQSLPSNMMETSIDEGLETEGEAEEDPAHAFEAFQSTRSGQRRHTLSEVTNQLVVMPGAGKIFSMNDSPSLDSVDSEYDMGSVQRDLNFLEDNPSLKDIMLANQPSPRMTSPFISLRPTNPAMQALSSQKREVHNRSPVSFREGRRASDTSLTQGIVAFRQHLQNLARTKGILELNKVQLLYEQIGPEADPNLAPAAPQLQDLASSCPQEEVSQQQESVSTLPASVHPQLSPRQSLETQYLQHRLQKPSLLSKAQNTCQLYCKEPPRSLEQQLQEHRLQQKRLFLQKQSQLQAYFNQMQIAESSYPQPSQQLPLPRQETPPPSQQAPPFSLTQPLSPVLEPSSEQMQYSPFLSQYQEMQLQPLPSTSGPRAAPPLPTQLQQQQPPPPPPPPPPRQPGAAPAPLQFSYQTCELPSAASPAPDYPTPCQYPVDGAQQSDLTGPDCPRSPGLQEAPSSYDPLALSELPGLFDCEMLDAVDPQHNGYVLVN", "conditions": "kinase SIK2 (Entrez SIK2)", "summary_of_the_method": "as §1"}},
  "data": [
    {"smiles": "CC(C)C(=O)N1CCN(c2ccc(NC(=O)c3cc4ccccc4o3)cc2Cl)CC1", "note": "[Compound 21]", "values": [
      {"measurement": "Percent Control", "setting": "[1]", "result": 100, "unit": "%"},
      {"measurement": "Percent Control", "setting": "[2]", "result": 84, "unit": "%"},
      {"measurement": "Percent Control", "setting": "[3]", "result": 83, "unit": "%"},
      {"measurement": "Percent Control", "setting": "[4]", "result": 75, "unit": "%"},
      {"measurement": "Percent Control", "setting": "[5]", "result": 100, "unit": "%"},
      {"measurement": "Percent Control", "setting": "[6]", "result": 95, "unit": "%"},
      {"measurement": "Percent Control", "setting": "[7]", "result": 65, "unit": "%"},
      {"measurement": "Percent Control", "setting": "[8]", "result": 97, "unit": "%"},
      {"measurement": "Percent Control", "setting": "[9]", "result": 76, "unit": "%"},
      {"measurement": "Percent Control", "setting": "[10]", "result": 100, "unit": "%"},
      {"measurement": "Percent Control", "setting": "[11]", "result": 89, "unit": "%"},
      {"measurement": "Percent Control", "setting": "[12]", "result": 81, "unit": "%"},
      {"measurement": "Percent Control", "setting": "[13]", "result": 91, "unit": "%"},
      {"measurement": "Percent Control", "setting": "[14]", "result": 100, "unit": "%"},
      {"measurement": "Percent Control", "setting": "[15]", "result": 68, "unit": "%"},
      {"measurement": "Percent Control", "setting": "[16]", "result": 78, "unit": "%"},
      {"measurement": "Percent Control", "setting": "[17]", "result": 100, "unit": "%"},
      {"measurement": "Percent Control", "setting": "[18]", "result": 89, "unit": "%"},
      {"measurement": "Percent Control", "setting": "[19]", "result": 77, "unit": "%"},
      {"measurement": "Percent Control", "setting": "[20]", "result": 99, "unit": "%"},
      {"measurement": "Percent Control", "setting": "[21]", "result": 98, "unit": "%"},
      {"measurement": "Percent Control", "setting": "[22]", "result": 94, "unit": "%"},
      {"measurement": "Percent Control", "setting": "[23]", "result": 99, "unit": "%"},
      {"measurement": "Percent Control", "setting": "[24]", "result": 96, "unit": "%"},
      {"measurement": "Percent Control", "setting": "[25]", "result": 55, "unit": "%"},
      {"measurement": "Percent Control", "setting": "[26]", "result": 40, "unit": "%"},
      {"measurement": "Percent Control", "setting": "[27]", "result": 77, "unit": "%"}
    ]}
  ]
}
